Laboratory results as given in paper doi:10.1101/2025.04.25.650653, “Hierarchical small molecule inhibition of MYST acetyltransferases” (bioRxiv, 2025).
“And” between values parts separate entries of the source, which are not always exact repeats. Equal values may be shown once.

Test system: histone modifications in MCF-7 cells
Experiment: Histone modification analysis by bottom-up LC-MS/MS
Format: cell-based
Settings: for Ratio, H2A1_12_17 unmod / Ratio, H2A3_12_17 K15me1: MCF-7; for Ratio, H3_3_8 K4me1 / Ratio, H3_3_8 unmod / Ratio, H3_54_63 unmod / Ratio, H3_41_49 unmod: Replicates 1-3
From the text: In this approach. […] Histones are then extracted from cell pellets and chemically derivatized with propionic anhydride, digested with trypsin, subjected to a second round of propionylation, and analyzed by LC-MS/MS. Measuring the relative intensity of modified versus unmodified forms of individual histone peptides enables simultaneous monitoring of multiple potential biomarkers of MYST inhibition. To minimize false positives, we focused on abundant and reproducible modifications (average stoichiometry of greater than 1% across triplicate samples, standard deviation less than or equal to the average measurement). To account for potential histone modification crosstalk, changes in both acetylated and methylated peptides were evaluated. 38 modified peptides passed this reproducible detection threshold including several established KAT biomarkers[41] including H3K9Ac (KAT2A/B), H3K18Ac (KAT3A/B), H3K14Ac (KAT7), H3K23Ac (KAT6A/B), H4K16Ac (KAT8), and H2A.ZK4/K7Ac (KAT5; Fig. 4B).
Histone modification analysis
MCF-7 cells were cultured at 37 °C under 5% CO2 in EMEM (Quality Biological, 112-016-101) with 0.01 mg/mL human recombinant insulin (Sigma Aldrich, 91077C), 2 mM L-glutamine (Quality Biological, 118- […]
human recombinant insulin.
1119, WM-3835). Following 24 h inhibitor treatment, cells were washed with ice-cold 1× PBS and scraped in 150 µL of Nuclear Isolation Buffer (NIB) containing 0.1% NP-40 for histone extraction using a modified protocol from the Garcia laboratory. 9 Briefly, cell suspensions were incubated on ice for 5 minutes, and […]
nuclei were pelleted by centrifugation (600 rcf, 4°C, 5 min). Pelleted nuclei were washed twice with 150 μL of detergent-free NIB buffer, followed by centrifugation (600 rcf, 4°C, 5 min) to remove all detergent.
Nuclei were then resuspended in 400 μL of 0.4 N H₂SO₄ and rotated at 4°C overnight for acid extraction of histones. The following day, samples were centrifuged (11,000 rcf, 4°C, 10 min) and the histone-containing supernatant was transferred to a fresh tube. Trichloroacetic acid (100% TCA) was added to achieve a final concentration of 20% (v/v), tubes were inverted once to mix, and histone precipitation was performed on ice for at least 3 hours or overnight at 4°C. Precipitated histones were collected by centrifugation (11,000 rcf, 4°C, 10 min) and the supernatant carefully removed, leaving a visible film of histones on the tube wall or bottom. Histone pellets were subjected to sequential washes with 1 mL of ice-cold acidified acetone (0.1% 12 N HCl) followed by 1 mL of 100% ice-cold acetone, with centrifugation (11,000 rcf, 4°C, 5 min) after each wash. Samples were air-dried at room temperature, resuspended in 40 µL of ddH₂O, and protein […]
analysis, 1-2 µg of purified histones were loaded per lane and processed according to the general immunoblotting protocol described in General Materials and Methods.
Analysis of histone modifications by LC-MS/MS
Preparation of histone samples for LC-MS/MS was performed analogously to the procedure for immunoblotting above, with the following modifications. MCF7 cells (4.2 × 106) were seeded in 15 cm dishes and treated with PF-9363 or vehicle. Experiments were performed in triplicate. Following treatment and PBS washing, cells were scraped and collected in 15 mL falcon tubes, pelleted (500 rcf, 4°C, 5 min), resuspended in 1 mL cold PBS, transferred to microcentrifuge tubes, and pelleted again before flash-freezing in liquid nitrogen for storage at -80°C. For extraction, cell pellets (~100 μL) were resuspended in NIB buffer at a 1:10 ratio, and cells were lysed with NIB buffer containing 0.2% NP-40 for 8 minutes on ice. Nuclei were pelleted at 1,000 rcf for 8 minutes and washed three times with 500 μL detergent-free NIB buffer. Histones were extracted using 800 μL of 0.2 M H₂SO₄, and after centrifugation (3,400 rcf, 4°C, 10

[1] = TKQTAR(H3_3_8), PF-9363 0.1 v 30
[2] = TKQTAR(H3_3_8), PF-9363 (0.1 mM)
[3] = TKQTAR(H3_3_8), PF-9363 (30 mM)

## COc1cccc(OC)c1S(=O)(=O)Nc1noc2cc(Cn3cccn3)cc(OC)c12 [PF-9363]
Replicate 2, PF-9363 30
  Ratio, H2A1_12_17 unmod: 0.4993
  Ratio, H2A3_12_17 K15me1: 0.4897
Replicate 3, PF-9363 0.1
  Ratio, H2A1_12_17 unmod: 0.4868
  Ratio, H2A3_12_17 K15me1: 0.466
Replicate 3, PF-9363 1
  Ratio, H2A1_12_17 unmod: 0.5044
  Ratio, H2A3_12_17 K15me1: 0.4869
Replicate 3, PF-9363 10
  Ratio, H2A1_12_17 unmod: 0.4939
  Ratio, H2A3_12_17 K15me1: 0.4755
Replicate 3, PF-9363 30
  Ratio, H2A1_12_17 unmod: 0.5006
  Ratio, H2A3_12_17 K15me1: 0.4892
[1]
  Fold-change 0.1 v 30, H3_3_8 K4me1: 1.02
  Fold-change 0.1 v 30, H3_3_8 unmod: 1.00
[2]
  Average ratio, H3_3_8 K4me1: 0.0973
  Average ratio, H3_3_8 unmod: 0.8963
[3]
  Average ratio, H3_3_8 K4me1: 0.0953
  Average ratio, H3_3_8 unmod: 0.8973
TKQTAR(H3_3_8), dose 0.1
  Ratio, H3_3_8 K4me1: 0.09461 and 0.103 and 0.09428
  Ratio, H3_3_8 unmod: 0.9002 and 0.8874 and 0.9011
TKQTAR(H3_3_8), dose 1
  Ratio, H3_3_8 K4me1: 0.09313 and 0.09156 and 0.09495
  Ratio, H3_3_8 unmod: 0.903 and 0.9014 and 0.9006
TKQTAR(H3_3_8), dose 10
  Ratio, H3_3_8 K4me1: 0.1087 and 0.09351 and 0.1018
  Ratio, H3_3_8 unmod: 0.8856 and 0.9033 and 0.8936
TKQTAR(H3_3_8), dose 30
  Ratio, H3_3_8 K4me1: 0.09818 and 0.09712 and 0.09049
  Ratio, H3_3_8 unmod: 0.8954 and 0.8931 and 0.9034
YQKSTELLIR(H3_54_63), PF-9363 0.1 v 30
  Fold-change 0.1 v 30, H3_54_63 unmod: 0.99
YQKSTELLIR(H3_54_63), PF-9363 (0.1 mM)
  Average ratio, H3_54_63 unmod: 0.9888
YQKSTELLIR(H3_54_63), PF-9363 (30 mM)
  Average ratio, H3_54_63 unmod: 0.9942
YQKSTELLIR(H3_54_63), dose 0.1
  Ratio, H3_54_63 unmod: 0.9974 and 0.9808 and 0.9881
YQKSTELLIR(H3_54_63), dose 1
  Ratio, H3_54_63 unmod: 0.9878 and 0.9887 and 0.9945
YQKSTELLIR(H3_54_63), dose 10
  Ratio, H3_54_63 unmod: 0.9895 and 0 and 0.9781
YQKSTELLIR(H3_54_63), dose 30
  Ratio, H3_54_63 unmod: 0.9962 and 0.9919 and 0.9944
YRPGTVALR(H3_41_49), PF-9363 0.1 v 30
  Fold-change 0.1 v 30, H3_41_49 unmod: 1.00
YRPGTVALR(H3_41_49), PF-9363 (0.1 mM)
  Average ratio, H3_41_49 unmod: 0.9999
YRPGTVALR(H3_41_49), PF-9363 (30 mM)
  Average ratio, H3_41_49 unmod: 0.9999
YRPGTVALR(H3_41_49), dose 0.1
  Ratio, H3_41_49 unmod: 0.9999 and 1 and 0.9998
YRPGTVALR(H3_41_49), dose 1
  Ratio, H3_41_49 unmod: 0.9993 and 1 and 0.9999
YRPGTVALR(H3_41_49), dose 10
  Ratio, H3_41_49 unmod: 0.9997 and 1 and 0.9999
YRPGTVALR(H3_41_49), dose 30
  Ratio, H3_41_49 unmod: 1 (2×) and 0.9996
Average ratio 0.1 v 30
  Fold-change 0.1 v 30, H2A1_1_11 K5ac: 0.99
  Fold-change 0.1 v 30, H2A1_4_11 K5ac: 0.88
  Fold-change 0.1 v 30, H2A1_4_11 K9ac: 1.17
  Fold-change 0.1 v 30, H2A1_4_11 unmod: 0.99
  Fold-change 0.1 v 30, H2A1_36_42 unmod: 1.00
  Fold-change 0.1 v 30, H2A3_36_42 unmod: 1.00
  Fold-change 0.1 v 30, H2AJ_4_11 K5acK9ac: 0.98
  Fold-change 0.1 v 30, H2AV_1_19 K4ac: 0.98
  Fold-change 0.1 v 30, H2AV_1_19 unmod: 1.14
  Fold-change 0.1 v 30, H2AX_36_42 unmod: 1.00
  Fold-change 0.1 v 30, H2AZ_1_19 K11ac: 0.64
  Fold-change 0.1 v 30, H2AZ_1_19 unmod: 0.92
  Fold-change 0.1 v 30, H3_73_83 K79me1: 1.08
  Fold-change 0.1 v 30, H3_73_83 K79me2: 1.32
  Fold-change 0.1 v 30, H3_73_83 unmod: 0.97
  Fold-change 0.1 v 30, H4_4_17 K12acK16ac: 0.05
  Fold-change 0.1 v 30, H4_4_17 unmod: 1.46
  Fold-change 0.1 v 30, H4_20_23 K20me1: 1.30
  Fold-change 0.1 v 30, H4_20_23 unmod: 1.38
